Measured values reported in patent US10166214B2, “Somatostatin receptor subtype 4 (SSTR4) agonists” (Centrexion Therapeutics Corporation, priority 2013, dated 2019).

What was measured:
[1] = target: human Somatostatin 4 receptor (SSTR4) (Homo sapiens (Human), UniProt P31391); assay: cAMP assay with human somatostatin 4 receptor (hSSTR4 expressing H4 cells); format: cell-based; settings: read-out: SSTR4 agonism EC50
Experimental: Method Description for cAMP Assay with Human Somatostatin 4 Receptor
The activation of the SSTR4 receptor (Gi coupled) causes an inhibition of intracellular cAMP after stimulation with Forskolin, which can be quantifiable by use of a suitable assay Kit and an adequate plate reader. This technique is used to characterize pharmacological effects of the SSTR4 receptor agonists by use of hSSTR4 expressing H4 cells.
Compounds are dissolved and diluted in DMSO. The final test solution contains 1% DMSO. […] Cells are centrifuged and suspended in assay buffer (incl. 1:100 diluted Alexa antibody).
For the assay 5 μl of a cell suspension (approximately 5000 cells/well)—incl. Alexa antibody (diluted 1:100) are added into a 384 well MTP microtitre plate excepting one row or column (depending on the plate layout), which is reserved for the standard curve. Then 2 μl of compound sample is added as concentration response curve (e.g. 1e-5 M to 6e-10 M), usually in triplicates. Each assay contains incubations with vehicle controls instead of compound as controls for non-inhibited cAMP generation (100% CTL; ‘high values’) and incubations with 1 μM Somatosatin as controls for full inhibition and background (0% CTL; ‘low values’). […] Then the plates are shaken briefly and incubated for 60 min at room temperature. After 60 min 10 μl of the detection mix is added into all wells followed by an additional incubation period of 1 h. The plates are read in a suitable plate reader.
From this ratio, cAMP concentrations are calculated from standard curve and the EC50 is estimated by least square curve fit program.

[2] = Metabolic stability in pooled human liver microsomes (half-life); format: in vitro ADME; settings: 1 μM test compound; for Half-life t1/2: 37° C.; for half-life at 1 μM: pH 7.6, 37° C., read-out: Half-life t1/2
Experimental: The metabolic stability of the compounds according to the invention may be investigated as follows:
The metabolic degradation of the test compound is assayed at 37° C. with pooled human liver microsomes. The final incubation volume of 100 μl per time point contains TRIS buffer pH 7.6 at room temperature (0.1 M), magnesium chloride (5 mM), microsomal protein (1 mg/mL) and the test compound at a final concentration of 1 μM. Following a short preincubation period at 37° C., the reactions are initiated by addition of beta-nicotinamide adenine dinucleotide phosphate, reduced form (NADPH, 1 mM), and terminated by transferring an aliquot into solvent after different time points. After centrifugation (10000 g, 5 min), an aliquot of the supernatant is assayed by LC-MS/MS for the amount of parent compound. The half-life is determined by the slope of the semi-logarithmic plot of the concentration-time profile.

human SSTR4 = human SSTR4 (Homo sapiens (Human), UniProt P31391); assay: Radioligand binding assay, CHO cell membranes expressing recombinant human SSTR4; settings: [3-125I-Tyr]-Somatostatin-(1-14)
Chain of human SSTR4 (P31391 whole entry): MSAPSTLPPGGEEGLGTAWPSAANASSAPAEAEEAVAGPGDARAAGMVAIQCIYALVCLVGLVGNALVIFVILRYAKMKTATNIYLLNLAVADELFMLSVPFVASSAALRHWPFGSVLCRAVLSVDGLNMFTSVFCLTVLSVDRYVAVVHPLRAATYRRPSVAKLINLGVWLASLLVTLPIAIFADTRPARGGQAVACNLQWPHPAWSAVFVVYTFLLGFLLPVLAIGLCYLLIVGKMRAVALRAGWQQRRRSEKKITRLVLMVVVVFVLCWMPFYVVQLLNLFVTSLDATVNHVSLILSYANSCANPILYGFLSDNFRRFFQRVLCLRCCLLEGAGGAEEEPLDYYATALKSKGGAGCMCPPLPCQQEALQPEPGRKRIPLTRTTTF
Experimental: Receptor binding assays refer to a technique in which labeled receptor ligands are used to detect binding to a receptor. In competition experiments test compounds, which are not labeled, compete with the binding side of a labeled ligand. The displacement of the labeled ligand by the test compound leads to a decreased signal.
For the binding experiments 200 μL of membrane homogenate from one of the following protein amounts is used: hSSTR1 (40 μg/well); hSSTR2 (25 μg/well); hSSTR3 (1.5 μg/well); hSSTR4 (0.5 μg/well); hSSTR5 (25 μg/well). […] The protein-bound radioactivity is measured in a suitable reader. The non-specific binding is defined as radioactivity bound in the presence of 1 μM Somatostatin-14 during the incubation period.
The analysis of the concentration-binding curves is performed by computer-assisted nonlinear least square curve fitting method using the model of one receptor binding site.

Chain of human Somatostatin 4 receptor (SSTR4) (P31391 whole entry): as above

Compound	Half-life t1/2 [2] [h]	other results
O=C(NC1CCCCC1c1ccccc1)[C@H]1[C@@H]2CNC[C@@H]21 (stereo partly drawn) [Example 9]	–	EC50 [1]: 536 nM
CC(C)(COc1cccnc1C(F)(F)F)NC(=O)[C@H]1[C@@H]2CNC[C@@H]21.Cl [Example 18]	>2.17	–
CC(C)(NC(=O)[C@H]1[C@@H]2CNC[C@@H]21)c1cnc2ccccn12.Cl [Example 20]	>2.17	–
CC(C)(NC(=O)[C@H]1[C@@H]2CNC[C@@H]21)c1ccnc2ccccc12.Cl [Example 21]	>2.17	–
Cc1cc2ccccc2c(C(C)(C)NC(=O)[C@H]2[C@@H]3CNC[C@@H]32)n1.Cl [Example 22]	>2.17	–
CC(C)(NC(=O)[C@H]1[C@@H]2CNC[C@@H]21)c1ncccc1C(F)(F)F.Cl [Example 23]	>2.17	–
CC(C)(NC(=O)[C@H]1[C@@H]2CNC[C@@H]21)c1nccc2ccccc12.Cl [Example 24]	>2.17	–
Cc1cccnc1C(C)(C)NC(=O)[C@H]1[C@@H]2CNC[C@@H]21.Cl.Cl [Example 25]	>2.17	–
CCc1ccccc1OCC(C)(C)NC(=O)[C@H]1[C@@H]2CNC[C@@H]21 [Example 39]	>2.17	–
Cc1ncccc1OCC(C)(C)NC(=O)[C@H]1[C@@H]2CNC[C@@H]21.Cl [Example 44]	>2.17	–
Cc1cc(C2CC2)ccc1OCC(C)(C)NC(=O)[C@H]1[C@@H]2CNC[C@@H]21 [Example 65]	–	half-life at 1 μM [2]: > 2.17 h
Cc1ccnnc1OCC(C)(C)NC(=O)[C@H]1[C@@H]2CNC[C@@H]21.Cl [Example 67]	>2.17	–
CC(C)(NC(=O)[C@H]1[C@@H]2CNC[C@@H]21)c1ncc2ccccn12.Cl [Example 68]	>2.17	–
Cc1cccc2c(C(C)(C)NC(=O)[C@H]3[C@@H]4CNC[C@@H]43)n[nH]c12 [Example 93]	–	EC50 [1]: 0.1 nM; Ki (human SSTR4): 3.6 nM; half-life at 1 μM [2]: > 2.17 h
CC(C)(NC(=O)[C@H]1[C@@H]2CNC[C@@H]21)c1n[nH]c2ccccc12 [Example 94]	–	EC50 [1]: 1.6 nM; half-life at 1 μM [2]: > 2.17 h
CC(C)(NC(=O)[C@H]1[C@@H]2CNC[C@@H]21)c1noc2c(F)cccc12 [Example 101]	>2.17	–
CC(C)(NC(=O)[C@H]1[C@@H]2CNC[C@@H]21)c1n[nH]c2c(C(F)(F)F)cccc12 [Example 110]	–	EC50 [1]: 0.7 nM; half-life at 1 μM [2]: > 2.17 h
CC(C)(NC(=O)[C@H]1[C@@H]2CNC[C@@H]21)c1nc(C2CC2)c2ccccn12.Cl [Example 120]	>2.17	–
Cc1cccn2c(C(C)(C)NC(=O)[C@H]3[C@@H]4CNC[C@@H]43)ncc12.Cl [Example 126]	>2.17	–
Cc1cccn2c(C(C)(C)NC(=O)[C@H]3[C@@H]4CNC[C@@H]43)nc(C)c12.Cl [Example 130]	–	EC50 [1]: 0.3 nM; half-life at 1 μM [2]: > 2.17 h
CC(C)(NC(=O)[C@H]1[C@@H]2CNC[C@@H]21)c1ncc2c(F)cccn12.Cl [Example 133]	>2.17	–
Cc1nc(C(C)(C)NC(=O)[C@H]2[C@@H]3CNC[C@@H]32)c2ccccc2n1 [Example 138]	>2.17	–
